For assay [1], the target named is T1, Levetiracetam Binding Site (LBS) (Rattus norvegicus, UniProt Q02563).
T1 construct: from tissue; host or cells: rat cerebral cortex crude membranes (male Sprague-Dawley)
Description: Competitive binding to levetiracetam binding site (LBS), radioligand [3H]-2-[4-(3-azidophenyl)-2-oxo-1-pyrrolidinyl]butanamide, cerebral cortex membranes. As for the experimental part:
The inhibition constant (Ki) of a compound is determined in competitive binding experiments by measuring the binding of a single concentration of a radioactive ligand at equilibrium with various concentrations of the unlabeled test substance. The concentration of the test substance inhibiting 50% of the specific binding of the radioligand is called the IC50. The equilibrium dissociation constant Ki is proportional to the IC50 and is calculated using the equation of Cheng and Prusoff (Cheng Y. et al., Biochem. Pharmacol. (1972), 22, 3099-3108).
The concentration range usually encompasses 6 log units with variable steps (0.3 to 1 log). Assays are performed in mono- or duplicate, each Ki determination is performed on two different samples of test substance. Cerebral cortex from 200-250 g male Sprague-Dawley rats were homogenised using a Potter S homogeniser (10 strokes at 1,000 rpm; Braun, Germany) in 20 mmol/l Tris-HCl (pH 7.4), 250 mmol/l sucrose (buffer A); all operations were performed at 4° C. The homogenate was centrifuged at 30,000 g for 15 min. The crude membrane pellet obtained was resuspended in 50 mmol/1 Tris-HCl (pH 7.4), (buffer B) and incubated 15 min at 37° C., centrifuged at 30,000 g for 15 min and washed twice with the same buffer. The final pellet was resuspended in buffer A at a protein concentration ranging from 15 to 25 mg/ml and stored in liquid nitrogen.
Membranes (150-200 μg of protein/assay) are incubated at 4° C. for 120 min in 0.5 ml of a 50 mmol/l Tris-HCl buffer (pH 7.4) containing 2 mmol/l MgCl2, 1 to 2.10^−9 mol/l of [^3H]-2-[4-(3-azidophenyl)-2-oxo-1-pyrrolidinyl]butanamide (levetiracetam analog, a tritiated radioligand currently used for the labelling of LBS), and increasing concentrations of the test substance. The non specific binding (NSB) is defined as the residual binding observed in the presence of a concentration of reference substance (e.g. 10^−3 mol/l levetiracetam) that binds essentially all the receptors. Membrane-bound and free radioligands are separated by rapid filtration through glass fiber filters (equivalent to Whatman GF/C or GF/B; VEL, Belgium) pre-soaked in 0.1% polyethyleneimine and 10^−3 mol/l levetiracetam to reduce non specific binding. Samples and filters are rinsed by at least 6 ml of 50 mmol/l Tris-HCl (pH 7.4) buffer. […] The radioactivity trapped onto the filters is counted by liquid scintillation in a β-counter (Tri-Carb 1900 or TopCount 9206, Camberra Packard, Belgium, or any other equivalent counter). Data analysis is perfomed by a computerized non linear curve fitting method using a set of equations describing several binding models assuming populations of independent non-interacting receptors which obey to the law of mass.

Assay [2] relates to sound-susceptible mice (audiogenic seizures, clonic convulsions). The assay is described as follows: Audiogenic seizure test in sound-susceptible mice. As to conditions: for ED50: Mus musculus. It is filed as in vivo. The source says:
The objective of this test is to evaluate the anticonvulsant potency of a compound in sound-susceptible mice, a genetic animal model with reflex seizures. In this model of primary generalised epilepsy, seizures are evoked without electrical or chemical stimulation and the seizure types are, at least in part, similar in their clinical phenomenology to seizures occurring in man (Löscher W. & Schmidt D., Epilepsy Res. (1998), 2, 145-181: Buchhalter J. R , Epilepsia (1993), 34, S31-S41).
Male or female genetically sound-sensitive mice (14-28 g; N=10), derived from a DBA strain originally selected by Dr. Lehmann of the Laboratory of Acoustic Physiology (Paris) and bred in the UCB Pharma Sector husbandry unit since 1978, were used. The experimental design consisted of several groups, one group receiving the vehicle control and the other groups different doses of the test-compound. The compounds were administered intraperitoneally 60 minutes before the induction of audiogenic seizures.
For testing, the animals were placed in small cages, one mouse per cage, in a sound-attenuated chamber. After a period of orientation of 30 seconds, the acoustic stimulus (90 dB, 10-20 kHz) was delivered for 30 seconds via loudspeakers positioned above each cage. During this interval, the mice were observed and the presence of the 3 phases of the seizure activity namely wild running, clonic and tonic convulsions, was recorded. The proportion of mice protected against wild running, clonic and tonic convulsions, respectively, was calculated.
For active compounds, an ED50 value, i.e. the dose (expressed in moles per kg of test animal) producing 50% protection relative to the control group, together with 95% confidence limits, was calculated using a Probit Analysis (SAS/STAT® Software, version 6.09, PROBIT procedure) of the proportions of protected mice for each of the 3 phases of the seizure activity.
In tables I-A and I-B the ED50 value (=AUD CC) for the inhibition of Clonic Convulsions in the Audiogenic seizure test are given. This test is a good animal model for the screening of anticonvulsant and/or antiepileptic compounds.

Where [3] appears, read: 7-ring compounds, rat cerebral cortex membranes.
[4] abbreviates: 7-ring compounds, intraperitoneally 60 minutes before induction, inactive = inactive at 1.0E−03.
Where [5] appears, read: 6-ring compounds, rat cerebral cortex membranes.
[6] abbreviates: 6-ring compounds, intraperitoneally 60 minutes before induction, inactive = inactive at 1.0E−03.

Read-outs that look alike come from different tables or passages of the source.

T1 sequence (Q02563 whole entry): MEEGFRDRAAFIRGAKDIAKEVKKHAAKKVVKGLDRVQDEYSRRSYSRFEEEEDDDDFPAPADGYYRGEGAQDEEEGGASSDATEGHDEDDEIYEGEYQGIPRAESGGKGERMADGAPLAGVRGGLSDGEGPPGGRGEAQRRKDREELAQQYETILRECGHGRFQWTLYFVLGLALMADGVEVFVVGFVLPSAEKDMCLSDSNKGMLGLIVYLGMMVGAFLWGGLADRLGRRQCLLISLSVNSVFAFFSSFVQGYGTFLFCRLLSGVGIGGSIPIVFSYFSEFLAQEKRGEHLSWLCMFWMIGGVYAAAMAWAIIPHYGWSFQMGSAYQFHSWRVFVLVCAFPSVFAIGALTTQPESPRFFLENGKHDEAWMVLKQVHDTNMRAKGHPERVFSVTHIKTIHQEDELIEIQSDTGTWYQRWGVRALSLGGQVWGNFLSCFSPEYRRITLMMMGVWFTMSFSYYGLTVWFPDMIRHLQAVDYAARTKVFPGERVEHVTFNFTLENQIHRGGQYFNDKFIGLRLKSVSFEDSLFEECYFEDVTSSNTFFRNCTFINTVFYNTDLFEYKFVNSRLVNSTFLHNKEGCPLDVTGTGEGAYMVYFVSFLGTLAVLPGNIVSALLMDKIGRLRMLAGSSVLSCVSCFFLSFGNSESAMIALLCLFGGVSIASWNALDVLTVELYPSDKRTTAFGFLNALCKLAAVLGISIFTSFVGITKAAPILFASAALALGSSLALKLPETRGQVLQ

The compound `CCC(C(N)=O)N1CCC(CI)CCC1=O` (single isomer, unassigned) [Compound 17, 2-[5-(iodomethyl)-2-oxo-1-azepanyl]butanamide] gave a Ki in assay [1] (setting [3]) above 3160 nM.

Take `CCC(C(N)=O)N1CCC(CI)CCC1=O` (single isomer, unassigned) [Compound 18, 2-[5-(iodomethyl)-2-oxo-1-azepanyl]butanamide]: the Ki in assay [1] (setting [3]) was 31.6 to 316 nM. In addition, the “AUD CC (ED50 for inhibition of Clonic Convulsions in the Audiogenic seizure test)” value in assay [2] (setting [4]) is 0.00013 mol/kg.

In turn, `CCC(C(N)=O)N1CCC(CI)CCC1=O` (single isomer, unassigned) [Compound 19, 2-[5-(iodomethyl)-2-oxo-1-azepanyl]butanamide] had a Ki in assay [1] (setting [3]) above 3160 nM. For the same compound, the “AUD CC (ED50 for inhibition of Clonic Convulsions in the Audiogenic seizure test)” value in assay [2] (setting [4]) is “Inactive”.

On to `CCC(C(N)=O)N1CCC(CI)CCC1=O` (single isomer, unassigned) [Compound 20, 2-[5-(iodomethyl)-2-oxo-1-azepanyl]butanamide], for which the Ki in assay [1] (setting [3]) is 316 to 3160 nM. Further, the “AUD CC (ED50 for inhibition of Clonic Convulsions in the Audiogenic seizure test)” value in assay [2] (setting [4]) was 0.00056 mol/kg.

`CC[C@@H](C(N)=O)N1CC(CI)CCC1=O` (stereo partly drawn) [Compound 5, (2S)-2-[5-(iodomethyl)-2-oxo-1-piperidinyl]butanamide] returned a Ki in assay [1] (setting [5]) of 316 to 3160 nM. The ED50 in assay [2] (ip, read-out: AUD CC (ED50 for inhibition of Clonic Convulsions in the Audiogenic seizure test), 6-ring compounds, intraperitoneally 60 minutes before induction, inactive = inactive at 1.0E−03) was 160 µmol/kg.

In turn, `CC[C@@H](C(N)=O)N1CC(CI)CCC1=O` (stereo partly drawn) [Compound 6, (2S)-2-[5-(iodomethyl)-2-oxo-1-piperidinyl]butanamide] had a Ki in assay [1] (setting [5]) of 31.6 to 316 nM. In addition, in assay [2] (setting [6]), the “AUD CC (ED50 for inhibition of Clonic Convulsions in the Audiogenic seizure test)” value is 0.0002 mol/kg.

For `CC[C@@H](C(N)=O)N1CC(CN=[N+]=[N-])CCC1=O` (stereo partly drawn) [Compound 7, (2S)-2-[5-(azidomethyl)-2-oxo-1-piperidinyl]butanamide], the inhibition constant Ki in assay [1] (setting [5]) lay within 31.6 to 316 nM. Moreover, the “AUD CC (ED50 for inhibition of Clonic Convulsions in the Audiogenic seizure test)” value in assay [2] (ip) was 0.00012 mol/kg.

`CC[C@@H](C(N)=O)N1CC(CN=[N+]=[N-])CCC1=O` (stereo partly drawn) [Compound 8, (2S)-2-[5-(azidomethyl)-2-oxo-1-piperidinyl]butanamide] registered a Ki in assay [1] (setting [5]) of 316 to 3160 nM. Also, the “AUD CC (ED50 for inhibition of Clonic Convulsions in the Audiogenic seizure test)” value in assay [2] (ip) was 0.00028 mol/kg.

`CCC(C(N)=O)N1CC(c2ccccc2)CCC1=O` (stereo not shown) [Compound 9, 2-(2-oxo-5-phenyl-1-piperidinyl)butanamide]: in assay [2] (ip), the “AUD CC (ED50 for inhibition of Clonic Convulsions in the Audiogenic seizure test)” value was 0.00028 mol/kg.

Consider `CCC(C(N)=O)N1CC(c2ccccc2)CCC1=O` (stereo not shown) [Compound 10, 2-(2-oxo-5-phenyl-1-piperidinyl)butanamide], for which, in assay [2] (ip), the “AUD CC (ED50 for inhibition of Clonic Convulsions in the Audiogenic seizure test)” value is given as “Inactive”.

In turn, `CCC(C(N)=O)N1CC(c2ccccc2)CCC1=O` (stereo not shown) [Compound 11, 2-(2-oxo-5-phenyl-1-piperidinyl)butanamide] registered a Ki in assay [1] (setting [5]) of 31.6 to 316 nM. In addition, the “AUD CC (ED50 for inhibition of Clonic Convulsions in the Audiogenic seizure test)” value in assay [2] (ip) was 7e-05 mol/kg.

Consider `CCC(C(N)=O)N1CC(c2ccccc2)CCC1=O` (stereo not shown) [Compound 12, 2-(2-oxo-5-phenyl-1-piperidinyl)butanamide], for which the “AUD CC (ED50 for inhibition of Clonic Convulsions in the Audiogenic seizure test)” value in assay [2] (ip) is on record as “Inactive”.

The compound `CC[C@@H](C(N)=O)N1CCC(CI)CC1=O` (stereo partly drawn) [Compound 13, (2S)-2-[4-(iodomethyl)-2-oxo-1-piperidinyl]butanamide] registered a Ki in assay [1] (setting [5]) of 31.6 to 316 nM. Besides, the “AUD CC (ED50 for inhibition of Clonic Convulsions in the Audiogenic seizure test)” value in assay [2] (setting [6]) amounted to 0.00011 mol/kg.

For the compound `CC[C@H](C(N)=O)N1CCC(CI)CC1=O` (stereo partly drawn) [Compound 14, (2R)-2-[4-(iodomethyl)-2-oxo-1-piperidinyl]butanamide], the “AUD CC (ED50 for inhibition of Clonic Convulsions in the Audiogenic seizure test)” value in assay [2] (setting [6]) is reported as “Inactive”.

Take `CC[C@@H](C(N)=O)N1CCC(CI)CC1=O` (stereo partly drawn) [Compound 15, (2S)-2-[4-(iodomethyl)-2-oxo-1-piperidinyl]butanamide]: the PKi entry in assay [1] (setting [5]) is on record as “+++ (+++ = 6.5 ≦ pKi < 7.5)”. Besides, the “AUD CC (ED50 for inhibition of Clonic Convulsions in the Audiogenic seizure test)” value in assay [2] (setting [6]) came to 0.00025 mol/kg.

Consider `CC[C@H](C(N)=O)N1CCC(CI)CC1=O` (stereo partly drawn) [Compound 16, (2R)-2-[4-(iodomethyl)-2-oxo-1-piperidinyl]butanamide], for which the “AUD CC (ED50 for inhibition of Clonic Convulsions in the Audiogenic seizure test)” value in assay [2] (setting [6]) is on record as “Inactive”.

Take `CC[C@@H](C(N)=O)N1CCCC1=O` [levetiracetam, (S)-(−)-α-ethyl-2-oxo-1-pyrrolidineacetamide, reference compound]: the Ki in assay [1] (reference) is 794 nM. Moreover, in assay [2] (reference compound, clonic convulsions, audiogenic seizure test, read-out: ED50 CC), the 50% effective dose (ED50) worked out at 180 µmol/kg.
